Data taken from patent US20040110253A1, “Method for identifying MHC-presented peptide epitopes for T cells” (priority 2002, published 2004).
Ends that are not written are not given here.

Key:
[1] = system: T cell 3DT-52.5; assay: IL-2 production by T cell 3DT-52.5 in response to LKD8 cells plus synthetic peptide; assay type: cell-based, mouse; settings: synthetic peptide 100 ug/ml, D^d expressing Tap deficient cell line, twenty four hours
Description: FIG. 14B is a graph showing IL-2 produced by T cell […] in response to (1) P815 plus a bound unknown self-peptide and 2) LKD8, alone, or in the presence of the library derived peptide, TGPTRWCRL (SEQ ID NO:50), or a peptide derived from the spin protein, AGATRWCRL (SEQ ID NO:51).
DNA from a number of these clones was sequenced through the region encoding the peptide to determine the peptide sequence. Only one sequence was found, a 9mer, TGPTRWCRL (represented by SEQ ID NO:50; the underlined amino acids are in the positions varied in the library). […] A search of the mouse genome for proteins that contained peptides similar to the library peptide yielded a very similar sequence (AGATRWCRL; SEQ ID NO:51) intheprotein, spin(GenBank Accession No. BC011467). The library peptide and the spin peptide were synthesized and tested with a D^d expressing, Tap deficient, cell line for recognition by the original T cell (FIG. 14B). […] In the case of LKD8 the cell line was tested alone or in the presence of 100 ug/ml of the library derived peptide, TGPTRWCRL (SEQ ID NO:50), or a peptide derived from the spin protein, AGATRWCRL (SEQ ID NO:51). After twenty four hours the culture supernatants were assayed for IL-2. Without an added peptide, the D^d on this cell line was not recognized because the Tap deficiency prevents loading of endogenous peptides.

[2] = system: YAe-62 TCR; assay: Binding of fluorescent soluble YAe-62 αβTCR to SF9 cells displaying IA^b-peptide (flow cytometry); parameters: species or system mouse; settings: for YAe-62 TCR Binding (% of p3K): IA^b-peptide displayed on baculovirus-infected SF9 cells, fluorescent soluble αβTCR; for binding of YAe-62 αβTCR to IA^b-peptide complex (in words): insect cells displaying IA^b-peptide
Method: (§1) Next fluorescent, soluble αβTCR reagents were prepared for use in flow cytometry to detect insect cells displaying the appropriate MHCII/peptide combination. Fluorescent multivalent versions of the soluble αβTCR's of B3K-06 and YAe-62 bound to insect cells displaying the IA^b-p3K, but not a control MHCII-peptide combination (data not shown).
(§2) Insect cells displaying IA^b-p3K bound the αβTCR reagents very heterogeneously, probably due to heterogeneous expression of IA^b-p3K due to variations in the multiplicity of infection and the lack of synchrony in viral infection and expression. […] In this case, there was a direct correlation between the amount of surface IA^b-p3K expressed by an individual insect cell and the amount of αβTCR bound with cells bearing a particular level of IA^b-p3K binding the αβTCRs uniformly (data not shown). Therefore, comparing the two types of staining gave a useful tool to evaluate the relation between peptide sequence and the strength of αβTCR binding (see below).
(§3) A large number of SF9 insect cells were infected at an MOI of about one with baculovirus carrying the IA^b peptide library. After 3-4 days the cells were analyzed with fluorescent B3K-06 or YAe-62 soluble αβTCR, as described above. Fluorescent cells were sorted and cultured with fresh uninfected SF9 cells to create new infected cells for analysis and an enriched viral stock. This process was repeated 3 to 4 times. In each case, when no clear fluorescent population was apparent, the brightest 1% of the infected cells was sorted. In later rounds, the majority of the cells in a clearly distinguishable fluorescent population were sorted. Infected cells binding the B3K-06 αβTCR were apparent only after two rounds of enrichment but eventually yielded a population with uniform binding (data not shown). Infected cells that bound the YAe-62 αβTCR were detectable even with the initial library of viruses and enriched rapidly to yield a population with more heterogeneous levels of binding to the receptor (data not shown).
(§4) At the time of the final enrichment, single infected cells binding each of αβTCRs were sorted into individual wells of 96 well culture plates containing fresh SF9 cells in order to prepare clonal viral stocks. These stocks were used to infect fresh SF9 cells which were reanalyzed for binding to the appropriate αβTCR as described above. […] The majority of PCR fragments yielded a single unambiguous peptide sequence. These viruses were used to infect SF9 cells that expressed mouse ICAM and B7.1. The infected cells were used as APCs for either the B3K-06 or YAe-62 hybridoma with IL-2 production being a measure of IA^b-peptide recognition. Viruses expressing IA^b-peptide combinations that neither bound to the αβTCR nor stimulated the T cell hybridomas were used as negative controls and virus producing IA^b-p3K was used as the positive control. Results with a few representative virus clones are shown in FIG. 10A and 10B, and a summary of all of the results are shown in Table 1.

[3] = system: YAe-62 hybridoma; assay: IL-2 production by YAe-62 T cell hybridoma in response to IA^b-peptide presenting APCs; assay type: cell-based, mouse; settings: for IL-2 Production (units/ml): YAe-62 hybridoma, infected SF9 cells expressing mouse ICAM and B7.1 as APCs; for difference in the amount of IL-2 production stimulated by the two peptides: SEQ ID NO:39 versus SEQ ID NO:40
Description: The mouse T cell hybridoma, referred to as YAe-62, was chosen as a representative of broadly reactive T cells present in mice carrying transgenes and gene knockouts that lead to expression of MHC Class II that are almost completely occupied by a single peptide (Ignatowicz et al., 1996, Cell 84:521-529). The T cell was produced by immunization with p3K bound to IA^b in mice that express IA^b covalently linked to Eα, a dominant IA^b binding peptide derived from the MHC Class II IEα chain. YAe-62 responds to IA^b-p3K, but not to APCs lacking MHC Class II or to the IA^b-pEα APCs from the mouse from which it was derived. YAe-62 is also reactive against many cell types bearing IA^b in the absence of p3K. It also responds to APCs from a variety of mice carrying other alleles of IA. The inventors have postulated that this T cell responds mainly to the evolutionarily conserved regions of the IA molecule with less dependence on the peptide than seen with conventional T cells (Marrack et al., 2001, J. Immunol. 167:617-621). […] From the X-ray crystal structure of IA^b (Liu et al., 2002, supra) enough was known about how peptides bind to this MHC molecule to design a strategy in which the major MHC anchor amino acids of the peptide could be held constant and only five surface exposed amino acids need be varied in the library (FIG. 8).
as §4

[4] = system: B3K-06 TCR; assay: Binding of fluorescent soluble B3K-06 αβTCR to SF9 cells displaying IA^b-peptide (flow cytometry); parameters: species or system mouse; settings: for B3K-06 TCR Binding (% of p3K): IA^b-peptide displayed on baculovirus-infected SF9 cells, fluorescent soluble αβTCR
Method: as §1, §2, §3, §4

[5] = system: B3K-06 hybridoma; assay: IL-2 production by B3K-06 T cell hybridoma in response to IA^b-peptide presenting APCs; assay type: cell-based, mouse; settings: for IL-2 Production (units/ml): B3K-06 hybridoma, infected SF9 cells expressing mouse ICAM and B7.1 as APCs
Description: The hybridoma, B3K-06 was produced from wild-type C57BL/6 mice immunized conventionally with the peptide (Rees et al., 1999, supra). […] Also, as is commonly seen with conventional T cells, the interaction of the αβ TcR of B3K-06 with IA^b-p3K is very sensitive to changes in any of the peptide amino acids exposed on the surface of the IA^b-p3K complex. Mutation of positions Q2, K3, K5, N7 or K8 to alanine virtually eliminates recognition of p3K by B3K-06 (Liu et al., 2002, supra and additional data not shown).
as §4

Row | Substance | YAe-62 TCR Binding (% of p3K) [2] | IL-2 Production (units/ml) [3] | also measured
1 | AGATRWCRL (listed as Mus musculus) [peptide derived from the spin protein] | – | – | restoration of the ability of LKD8 cells to stimulate the T cells (IL-2) [1]: restored the ability of the cells to stimulate the T cells
2 | F E A A L A R A V P A V (FEAALARAVPAV; synthetic peptide motif) [SEQ ID NO:33] | 23.4 % of p3K | <3 units/ml | –
3 | F E A E K A K A L T A V (FEAEKAKALTAV; synthetic peptide motif) [SEQ ID NO:28] | 49.6 % of p3K | 9 units/ml | –
4 | F E A E R A R A A S A V (FEAERARAASAV; synthetic peptide motif) [SEQ ID NO:36] | 2.3 % of p3K | <3 units/ml | –
5 | F E A F M A R A K A A V (FEAFMARAKAAV; synthetic peptide motif) [SEQ ID NO:21] | 107.5 % of p3K | 1256 units/ml | –
6 | F E A F P A K A L R A V (FEAFPAKALRAV; synthetic peptide motif) [SEQ ID NO:30] | 38.5 % of p3K | 47 units/ml | –
7 | F E A H T A L A P R A V (FEAHTALAPRAV) [SEQ ID NO:23] | 80.4 % of p3K | 6 units/ml | –
8 | F E A L P A R A A A A V (FEALPARAAAAV) [SEQ ID NO:22] | 70.4 % of p3K | 681 units/ml | binding of YAe-62 αβTCR to IA^b-peptide complex (in words) [2]: nearly equally well; difference in the amount of IL-2 production stimulated by the two peptides [3]: 100 fold
9 | F E A L S A K A N T A V (FEALSAKANTAV; synthetic peptide motif) [SEQ ID NO:31] | 33.3 % of p3K | <3 units/ml | –
10 | F E A L Y A K A L T A V (FEALYAKALTAV; synthetic peptide motif) [SEQ ID NO:19] | 98.7 % of p3K | 1717 units/ml | –
11 | F E A P Y A Q A P H A V (FEAPYAQAPHAV; synthetic peptide motif) [SEQ ID NO:38] | 1.3 % of p3K | <3 units/ml | –
12 | F E A Q G A L A N I A V (FEAQGALANIAV; synthetic peptide motif) [pEα, negative control, reference compound] | 0.3 % of p3K | <3 units/ml | B3K-06 TCR Binding (% of p3K) [4]: 0.4 % of p3K; response of YAe-62 to IA^b-peptide APCs ([3]; APCs bearing IA^b-peptide): not; IL-2 Production (units/ml) [5]: <3 units/ml
13 | F E A Q R A R A A R A V (FEAQRARAARAV; also: tethered to IA^b) [SEQ ID NO:16] | – | – | B3K-06 TCR Binding (% of p3K) [4]: 66.8 % of p3K; binding of B3K-06 αβTCR to IA^b-peptide complex (in words) ([4]; insect cells displaying IA^b-peptide): only slightly less well than did the IA^b-p3K complex; IL-2 Production (units/ml) [5]: 25 units/ml; stimulation of B3K-06 to produce IL-2 (in words) ([5]; bound to IA^b on B7/ICAM expressing SF9 APCs): able to stimulate B3K-06 to produce IL-2, but not nearly as well as did p3K
14 | F E A Q V A H A L P A V (FEAQVAHALPAV; synthetic peptide motif) [SEQ ID NO:29] | 48.6 % of p3K | 32 units/ml | –
15 | F E A R C A K A S T A V (FEARCAKASTAV; synthetic peptide motif) [SEQ ID NO:20] | 102.5 % of p3K | 467 units/ml | –
16 | F E A R E A K A L A A V (FEAREAKALAAV; synthetic peptide motif) [SEQ ID NO:32] | 27.0 % of p3K | <3 units/ml | –
17 | F E A R L A S A G K A V (FEARLASAGKAV; synthetic peptide motif) [SEQ ID NO:35] | 2.6 % of p3K | <3 units/ml | –
18 | F E A R T A H A R N A V (FEARTAHARNAV; synthetic peptide motif) [SEQ ID NO:37] | 1.4 % of p3K | <3 units/ml | –
19 | F E A S K A S A A V A V (FEASKASAAVAV; synthetic peptide motif) [SEQ ID NO:34] | 13.0 % of p3K | <3 units/ml | –
20 | F E A S L A R A R S A V (FEASLARARSAV) [SEQ ID NO:24] | 76.2 % of p3K | 5 units/ml | –
21 | F E A T T A R A L T A V (FEATTARALTAV; synthetic peptide motif) [SEQ ID NO:27] | 52.0 % of p3K | 6 units/ml | –
22 | F E A Y T A R A R T A V [SEQ ID NO:25] (FEAYTARARTAV) | 58.3 % of p3K | 5 units/ml | –
23 | F E A Y T A R A R T A V [SEQ ID NO:26] (FEAYTARARTAV; synthetic peptide motif) | 54.9 % of p3K | 7 units/ml | –
24 | FEAQTAKARGAVD (synthetic peptide motif) | – | – | binding of YAe-62 αβTCR to IA^b-peptide complex (in words) [2]: nearly equally well; difference in the amount of IL-2 production stimulated by the two peptides [3]: 100 fold
